Experiment [1] deals with T1, LNCaP type mutant androgen receptor (AR) (Homo sapiens, UniProt P10275, T878A).
T1 sequence (P10275 1-920 T878A): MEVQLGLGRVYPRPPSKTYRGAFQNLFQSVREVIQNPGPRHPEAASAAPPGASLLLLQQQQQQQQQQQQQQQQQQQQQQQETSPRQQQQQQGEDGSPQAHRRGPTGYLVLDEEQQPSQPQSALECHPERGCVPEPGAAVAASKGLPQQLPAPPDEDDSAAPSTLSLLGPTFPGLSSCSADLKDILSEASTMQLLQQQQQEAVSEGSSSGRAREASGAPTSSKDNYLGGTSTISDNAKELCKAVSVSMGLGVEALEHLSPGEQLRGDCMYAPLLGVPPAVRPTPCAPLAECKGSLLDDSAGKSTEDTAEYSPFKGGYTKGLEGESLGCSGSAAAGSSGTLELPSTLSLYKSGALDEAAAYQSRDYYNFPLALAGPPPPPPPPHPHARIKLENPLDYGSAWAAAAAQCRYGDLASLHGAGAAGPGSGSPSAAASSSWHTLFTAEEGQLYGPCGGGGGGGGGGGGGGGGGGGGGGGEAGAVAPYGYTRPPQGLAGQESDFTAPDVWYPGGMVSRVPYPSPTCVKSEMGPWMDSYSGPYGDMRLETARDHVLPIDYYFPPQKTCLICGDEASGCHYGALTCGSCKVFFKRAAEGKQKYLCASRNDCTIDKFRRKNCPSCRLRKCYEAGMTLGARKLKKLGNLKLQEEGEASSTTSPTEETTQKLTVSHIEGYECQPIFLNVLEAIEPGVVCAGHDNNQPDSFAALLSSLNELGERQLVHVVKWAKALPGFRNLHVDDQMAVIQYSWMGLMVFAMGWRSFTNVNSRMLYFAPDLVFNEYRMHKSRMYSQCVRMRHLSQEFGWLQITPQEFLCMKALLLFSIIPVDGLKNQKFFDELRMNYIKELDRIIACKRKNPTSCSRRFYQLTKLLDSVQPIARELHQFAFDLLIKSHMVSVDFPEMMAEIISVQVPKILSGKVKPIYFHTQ
Nature of the experiment: AR-binding inhibition test, LNCaP type (radio-labeled Mibolerone displacement). The settings on record: compound 1 μM; 3 nM radio-labeled Mibolerone; 4° C., 3 hours; dextran/charcoal method; read-out: Inhibitory rate (%) at 1 μM, LNCaP type. The protocol:
(§1) To a solution of wild type or LNCaP type mutant androgen receptor (AR) was added 3 nM radio-labeled Mibolerone and final concentration 1 μM of the compound. The mixture was incubated at 4° C. for 3 hours, and B (Bound) and F (Free) Mibolerones were separated by the dextran/charcoal method. The label count of B was measured and the inhibition rate of the compound was calculated.

Experiment [2] deals with T2, wild type androgen receptor (AR) (Homo sapiens, UniProt P10275).
T2 sequence (P10275 1-920): T1 sequence (P10275 1-920 T878A) with A878T
The experiment is described as follows: AR-binding inhibition test, wild type (radio-labeled Mibolerone displacement). As to conditions: compound 1 μM; 3 nM radio-labeled Mibolerone; 4° C., 3 hours; dextran/charcoal method; read-out: Inhibitory rate (%) at 1 μM, wild type. On the procedure:
as §1

For the next experiment, the target named is T3, mutant AR (W741C) (Homo sapiens, UniProt P10275, W742C).
T3 construct: expressed in transfected cells; host or cells: Cos-7
T3 sequence (P10275 1-920 W742C): T1 sequence (P10275 1-920 T878A) with W742C, A878T
Nature of the experiment: AR transcription inhibition test (luciferase reporter in Cos-7 cells). As to conditions: compound 1 μM, 0.1 μM DHT, luciferase activity after 24 hr, relative to control (0.1 μM DHT), read-out: Inhibitory rate (%) of mutant AR at 1 μM. The format is cell-based. The protocol: Cos-7 cells (5,000,000 cells) were inoculated to a flask, and incubated in a culture medium (DMEM+10% Dextran Charcoal (DCC)−Fetal Bovine Serum (FBS) and 2 mM glutamine) for 24 hours. Then, a vector DNA harboring mutant AR (W741C) and a vector DNA containing a luciferase gene bound at the downstream of an androgen responsive promoter were cotransfected by a liposome method. After 4 hr, the medium was changed and, after culture for 3 hr, DHT (dihydrotestosterone) at the final concentration of 0.1 μM and the compound at the final concentration of 1 μM were added. After further culture for 24 hr, the luciferase activity was measured, and the AR transcription inhibitory activity of the compound was examined.
(In general: A reporter such as luciferase makes a cellular process visible.)

Experiment [3] relates to Human prostate cancer cells LNCaP-FGC. Nature of the experiment: Prostate specific antigen (PSA) production inhibition test in prostate cancer cells. The format is cell-based. As to conditions: compound 1 μM, testosterone 0.1 ng/m, PSA in culture supernatant after 3 days by ELISA, testosterone non-addition group 100%, addition group 0%; for inhibition at 1 µM: Homo sapiens, 72 h, read-out: Inhibitory rate (%) at 1 μM (PSA production suppression rate). The protocol:
Human prostate cancer cells LNCaP-FGC were plated in a 24 well plate at 40000 cells/1000 μL/well, and testosterone (final concentration 0.1 ng/m) and the compound (1 μM) were added the next day. The concentration of PSA in the culture supernatant after 3 days from the addition was measured by ELISA, and the PSA production suppression rate was calculated with the testosterone non-addition group as 100% and the testosterone addition group as 0%.
In general terms: ELISA stands for enzyme-linked immunosorbent assay.

Positions count from the first letter of the chain named.

Regarding `CNC(=O)c1ccc(Cn2nc(C)c(-c3ccc(C#N)c(Cl)c3)c2C)cn1` [Example 106, 5-{[4-(3-chloro-4-cyanophenyl)-3,5-dimethyl-1H-pyrazol-1-yl]methyl}-N-methylpyridine-2-carboxamide], the inhibition at 1 µM in experiment [1] stood at 79%; in experiment [2] it was 49%; at mutant AR (W741C), 38%; in experiment [3], 110%.
`Cc1nn(Cc2ccc(C(N)=O)cc2)c(C)c1-c1ccc(C#N)c(Cl)c1` [Example 69, 4-{[4-(3-chloro-4-cyanophenyl)-3,5-dimethyl-1H-pyrazol-1-yl]methyl}benzamide]: the inhibition at 1 µM came out at 80% in experiment [1], 88% in experiment [2], 19% on mutant AR (W741C) and 107% in experiment [3].
Consider `Cc1nn(Cc2cccc(C(N)=O)c2)c(C)c1-c1ccc(C#N)c(Cl)c1` [Example 68, 3-{[4-(3-chloro-4-cyanophenyl)-3,5-dimethyl-1H-pyrazol-1-yl]methyl}benzamide], for which the inhibition at 1 µM in experiment [1] was found to be 82%; in experiment [2] it was 76%; on mutant AR (W741C) it was 31%; in experiment [3], 95.4%.
For `Cc1nn(Cc2ccc(C(=O)NC3CC3)nc2)c(C)c1-c1ccc(C#N)c(Cl)c1` [Example 310, 5-{[4-(3-chloro-4-cyanophenyl)-3,5-dimethyl-1H-pyrazol-1-yl]methyl}-N-cyclopropylpyridine-2-carboxamide] the same measures were 73%, 70%, 72% and 106%.
On to `Cc1nn(Cc2ccc(S(N)(=O)=O)cc2)c(C)c1-c1ccc(C#N)c(Cl)c1` [Example 322, 4-{[4-(3-chloro-4-cyanophenyl)-3,5-dimethyl-1H-pyrazol-1-yl]methyl}benzenesulfonamide], for which the inhibition at 1 µM in experiment [1] stood at 83%; in experiment [2], 84%; on mutant AR (W741C) it was 24%; in experiment [3], 108%.
On to `Cc1nn(Cc2ccc(C(=O)NCC(C)(C)O)cc2)c(C)c1-c1ccc(C#N)c(Cl)c1` [Example 282, 4-{[4-(3-chloro-4-cyanophenyl)-3,5-dimethyl-1H-pyrazol-1-yl]methyl}-N-(2-hydroxy-2-methylpropyl)benzamide], for which the inhibition at 1 µM in experiment [1] came to 54%; in experiment [2], 58%; at mutant AR (W741C), 28%; in experiment [3], 80%.
`Cc1nn(Cc2ccc(C(N)=O)nc2)c(C)c1-c1ccc(C#N)c(C(F)(F)F)c1` [Example 311, 5-({4-[4-cyano-3-(trifluoromethyl)phenyl]-3,5-dimethyl-1H-pyrazol-1-yl}methyl)pyridine-2-carboxamide]: the inhibition at 1 µM in experiment [1] came out at 29%; in experiment [2] it was 29%; on mutant AR (W741C) it was 17%; in experiment [3], 85.8%.
As for `Cc1nnc(-c2ccc(Cn3nc(C)c(-c4ccc(C#N)c(Cl)c4)c3C)cc2)o1` [Example 286, 2-chloro-4-{3,5-dimethyl-1-[4-(5-methyl-1,3,4-oxadiazol-2-yl)benzyl]-1H-pyrazol-4-yl}benzonitrile], the inhibition at 1 µM was determined as 89% in experiment [1], 85% in experiment [2], 67% at mutant AR (W741C) and 107% in experiment [3].
For `Cc1nn(Cc2ccc(C(=O)NC3CC3)cc2)c(C)c1-c1ccc(C#N)c(Cl)c1` [Example 304, 4-{[4-(3-chloro-4-cyanophenyl)-3,5-dimethyl-1H-pyrazol-1-yl]methyl}-N-cyclopropylbenzamide] the same measures were 82%, 74%, 36% and 98.3%.
`CC(O)(CS(=O)(=O)c1ccc(F)cc1)C(=O)Nc1ccc(C#N)c(C(F)(F)F)c1` (stereo not shown) [bicartamide, reference compound]: the “Inhibitory rate (%) at 1 μM (PSA production suppression rate)” value in experiment [3] was 75.0%.

The record behind these values is patent US20090270359A1, “SUBSTITUTED PYRAZOLE DERIVATIVES” (TAKEDA PHARMACEUTICAL COMPANY LIMITED, priority 2007, published 2009).
